Test results reported in US8299048B2, “Hexahydrocyclopentyl[f]indazole sulfonamides and derivatives thereof as selective glucocorticoid receptor modulators” (Merck Sharp & Dohme Corp., priority 2008, dated 2012).

Target: T1, human GR (Homo sapiens, UniProt P04150)
T1 sequence (P04150 1-777): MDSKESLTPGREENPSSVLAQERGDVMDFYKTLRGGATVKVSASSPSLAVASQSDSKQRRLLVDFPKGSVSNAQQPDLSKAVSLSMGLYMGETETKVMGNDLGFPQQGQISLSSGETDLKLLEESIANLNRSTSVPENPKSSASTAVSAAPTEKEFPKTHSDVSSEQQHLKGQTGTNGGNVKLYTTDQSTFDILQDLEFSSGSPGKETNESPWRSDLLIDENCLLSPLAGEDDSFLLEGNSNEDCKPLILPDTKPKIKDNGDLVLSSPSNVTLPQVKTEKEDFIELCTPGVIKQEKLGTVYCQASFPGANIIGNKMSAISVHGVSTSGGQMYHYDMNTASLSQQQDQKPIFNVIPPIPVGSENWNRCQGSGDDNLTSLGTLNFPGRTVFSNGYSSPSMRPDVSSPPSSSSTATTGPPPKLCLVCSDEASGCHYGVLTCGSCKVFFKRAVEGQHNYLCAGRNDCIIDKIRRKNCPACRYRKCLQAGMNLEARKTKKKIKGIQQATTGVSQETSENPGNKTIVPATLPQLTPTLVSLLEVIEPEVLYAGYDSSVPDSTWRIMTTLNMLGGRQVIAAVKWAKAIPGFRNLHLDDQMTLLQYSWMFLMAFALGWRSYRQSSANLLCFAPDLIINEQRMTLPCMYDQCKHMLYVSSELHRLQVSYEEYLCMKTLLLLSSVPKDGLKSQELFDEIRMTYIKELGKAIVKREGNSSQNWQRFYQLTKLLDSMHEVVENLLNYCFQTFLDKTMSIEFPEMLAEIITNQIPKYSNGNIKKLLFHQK
Assay: Trans-Activation Modulation of Glucocorticoid Receptor (GRAMMER), MMTV-LUC reporter, agonist mode
Format: cell-based
Design: endogenous in cells
Conditions: for Emax: A549, A549 cells, maximum activity, read-out: Transactivation A549 Cells GRAMMER Emax; for EC50: A549 cells, inflection point, read-out: Transactivation A549 Cells GRAMMER IP
Summary of the method: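 Readout is luciferase from a modified MMTV LTR promoter after 24 h compound exposure alongside 10 nM dexamethasone (100% activity reference), DMSO ≤1%.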

Cc1nn(C)c(Cl)c1S(=O)(=O)N(CC#N)C[C@H]1CCC2=Cc3c(cnn3-c3ccc(F)cc3)C[C@@]21C [Example 52, 5-chloro-N-(cyanomethyl)-N-{[(4αR,5S)-1-(4-fluorophenyl)-4α-methyl-1,4,4α,5,6,7-hexahydrocyclopenta[f]indazol-5-yl]methyl}-1,3-dimethyl-1H-pyrazole-4-sulfonamide] showed an Emax of 31.9% and an EC50 of 570 nM.
Compound C[C@]12Cc3cnn(-c4ccc(F)cc4)c3C=C1CC[C@@H]2CN(CCc1ccccc1F)S(=O)(=O)Cc1ccccc1C(N)=O [Example 190, 2-{[([2-(2-fluorophenyl)ethyl]{[(4αR,5S)-1-(4-fluorophenyl)-4α-methyl-1,4,4α,5,6,7-hexahydrocyclopenta[f]indazol-5-yl]methyl}amino)sulfonyl]methyl}benzamide] has an Emax of 65.1% and an EC50 of 424 nM.
For C[C@H](O)CN(C[C@H]1CCC2=Cc3c(cnn3-c3ccc(F)cc3)C[C@@]21C)S(=O)(=O)Cc1ccccc1C(=O)O [Example 183, 2-[({{[(4αR,5S)-1-(4-fluorophenyl)-4α-methyl-1,4,4α,5,6,7-hexahydrocyclopenta[f]indazol-5-yl]methyl}[(2S)-2-hydroxypropyl]amino}sulfonyl)methyl]benzoic acid], the Emax was 15% and the EC50 was 4500 nM.
C[C@]12Cc3cnn(-c4ccc(F)cc4)c3C=C1CC[C@@H]2CN(CC#N)S(=O)(=O)c1cc(F)cc(F)c1 [Example 44, N-(cyanomethyl)-3,5-difluoro-N-{[(4αR,5S)-1-(4-fluorophenyl)-4α-methyl-1,4,4α,5,6,7-hexahydrocyclopenta[f]indazol-5-yl]methyl}benzenesulfonamide] showed an Emax of 44.8% and an EC50 of 622 nM.
In the case of C[C@]12Cc3cnn(-c4ccc(F)cc4)c3C=C1CC[C@@H]2CN(CC1CC1)S(=O)(=O)Cc1ccccc1 [Example 21, N-(cyclopropylmethyl)-N-{[(4αR,5S)-1-(4-fluorophenyl)-4α-methyl-1,4,4α,5,6,7-hexahydrocyclopenta[f]indazol-5-yl]methyl}-1-phenylmethanesulfonamide], the Emax is reported as 33.5% and the EC50 is reported as 519 nM.
With Cc1ccccc1S(=O)(=O)N(CC#N)C[C@H]1CCC2=Cc3c(cnn3-c3ccc(F)cc3)C[C@@]21C [Example 49, N-(cyanomethyl)-N-{[(4αR,5S)-1-(4-fluorophenyl)-4α-methyl-1,4,4α,5,6,7-hexahydrocyclopenta[f]indazol-5-yl]methyl}-2-methylbenzenesulfonamide] the Emax was 14.1% and the EC50 was 955 nM.
Cn1cc(S(=O)(=O)N(CC#N)C[C@H]2CCC3=Cc4c(cnn4-c4ccc(F)cc4)C[C@@]32C)c(C(F)(F)F)n1 [Example 32, N-(cyanomethyl)-N-{[(4αR,5S)-1-(4-fluorophenyl}-4α-methyl-1,4,4α,5,6,7-hexahydrocyclopenta[f]indazol-5-yl]methyl}-1-methyl-3-(trifluoromethyl)-1H-pyrazole-4-sulfonamide] was tested, and the Emax was 29.4% and the EC50 was 868 nM.
Compound CCS(=O)(=O)N(CC1CCCO1)C[C@H]1CCC2=Cc3c(cnn3-c3ccc(F)cc3)C[C@@]21C (stereo partly drawn) [Example 174, N-{[(4αR,5S)-1-(4-fluorophenyl)-4α-methyl-1,4,4α,5,6,7-hexahydrocyclopenta[f]indazol-5-yl]methyl}-N-(tetrahydrofuran-2-ylmethyl)ethanesulfonamide] has an Emax of 81.1% and an EC50 of 527 nM.
With C[C@@H](O)CN(C[C@H]1CCC2=Cc3c(cnn3-c3ccc(F)cc3)C[C@@]21C)S(=O)(=O)Cc1ccccc1C(N)=O [Example 184, 2-[({{[(4αR,5S)-1-(4-fluorophenyl)-4α-methyl-1,4,4α,5,6,7-hexahydrocyclopenta[f]indazol-5-yl]methyl}[(2R)-2-hydroxypropyl]amino}sulfonyl)methyl]benzamide] the Emax was 21.6% and the EC50 was 422 nM.
With C[C@]12Cc3cnn(-c4ccc(F)cc4)c3C=C1CC[C@@H]2CN(CC#N)S(=O)(=O)c1ccc(C#N)cc1 [Example 28, 4-cyano-N-(cyanomethyl)-N-{[(4αR,5S)-1-(4-fluorophenyl)-4α-methyl-1,4,4α,5,6,7-hexahydrocyclopenta[f]indazol-5-yl]methyl}benzenesulfonamide] the Emax was 44% and the EC50 was 483 nM.
Cc1cc(S(=O)(=O)N(CC#N)C[C@H]2CCC3=Cc4c(cnn4-c4ccc(F)cc4)C[C@@]32C)c(C)cc1Cl [Example 29, 4-chloro-N-(cyanomethyl)-N-{[(4αR,5S)-1-(4-fluorophenyl)-4α-methyl-1,4,4α,5,6,7-hexahydrocyclopenta[f]indazol-5-yl]methyl}-2,5-dimethylbenzenesulfonamide] was tested, and the Emax was 4.7% and the EC50 was 1710 nM.
C[C@]12Cc3cnn(-c4ccc(F)cc4)c3C=C1CC[C@@H]2CN(CC#N)S(=O)(=O)c1ccc(Oc2ccccn2)cc1 [Example 45, N-(cyanomethyl)-N-{[(4αR,5S)-1-(4-fluorophenyl)-4α-methyl-1,4,4α,5,6,7-hexahydrocyclopenta[f]indazol-5-yl]methyl}-4-(pyridin-2-yloxy)benzenesulfonamide] gave an Emax of 11.4% and an EC50 of 2890 nM.
Compound Cc1oncc1S(=O)(=O)N(CCO)C[C@H]1CCC2=Cc3c(cnn3-c3ccc(F)cc3)C[C@@]21C [Example 56, N-{[(4αR,5S)-1-(4-fluorophenyl)-4α-methyl-1,4,4α,5,6,7-hexahydrocyclopenta[f]indazol-5-yl]methyl}-N-(2-hydroxyethyl)-5-methylisoxazole-4-sulfonamide] has an Emax of 50.9% and an EC50 of 805 nM.
In the case of CC(C)(O)CN(C[C@H]1CCC2=Cc3c(cnn3-c3ccc(F)cc3)C[C@@]21C)S(=O)(=O)c1ccccc1F [Example 199, 2-fluoro-N-{[(4αR,5S)-1-(4-fluorophenyl)-4α-methyl-1,4,4α,5,6,7-hexahydrocyclopenta[f]indazol-5-yl]methyl}-N-(2-hydroxy-2-methylpropyl)benzenesulfonamide], the Emax is reported as 58.6% and the EC50 is reported as 96.8 nM.
With C[C@]12Cc3cnn(-c4ccc(F)cc4)c3C=C1CC[C@@H]2CN(CCO)S(=O)(=O)c1ccc(C#N)cc1Cl [Example 60, 2-chloro-4-cyano-N-{[(4αR,5S)-1-(4-fluorophenyl)-4α-methyl-1,4,4α,5,6,7-hexahydrocyclopenta[f]indazol-5-yl]methyl}-N-(2-hydroxyethyl)benezenesulfonamide] the Emax was 23% and the EC50 was 777 nM.
With C[C@]12Cc3cnn(-c4ccc(F)cc4)c3C=C1CC[C@@H]2CN(CC#N)S(=O)(=O)c1ccc(Oc2cccc(Cl)c2C#N)cc1 [Example 38, 4-(3-chloro-2-cyanophenoxy)-N-(cyanomethyl)-N-{[(4αR,5S)-1-(4-fluorophenyl)-4α-methyl-1,4,4α,5,6,7-hexahydrocyclopenta[f]indazol-5-yl]methyl}benzenesulfonamide] the Emax was 1.3% and the EC50 was 5000 nM.
With C[C@]12Cc3cnn(-c4ccc(F)cc4)c3C=C1CC[C@@H]2CN(CC#N)S(=O)(=O)c1cc(F)c(F)cc1F [Example 47, N-(cyanomethyl)-2,4,5-trifluoro-N-{[(4αR,5S)-1-(4-fluorophenyl)-4α-methyl-1,4,4α,5,6,7-hexahydrocyclopenta[f]indazol-5-yl]methyl}benzenesulfonamide] the Emax was 58.3% and the EC50 was 635 nM.
In the case of C[C@]12Cc3cnn(-c4ccc(F)cc4)c3C=C1CC[C@@H]2CN(CC1CC1)S(=O)(=O)c1ccc(F)c(Cl)c1 [Example 15, 3-chloro-N-(cyclopropylmethyl)-4-fluoro-N-{[(4αR,5S)-1-(4-fluorophenyl)-4α-methyl-1,4,4α,5,6,7-hexahydrocyclopenta[f]indazol-5-yl]methyl}benzenesulfonamide], the Emax is reported as 27.6% and the EC50 is reported as 292 nM.
COC(=O)c1ccccc1S(=O)(=O)N(CC1CC1)C[C@H]1CCC2=Cc3c(cnn3-c3ccc(F)cc3)C[C@@]21C [Example 18, methyl 2-[((cyclopropylmethyl){[(4αR,5S)-1-(4-fluorophenyl)-4α-methyl-1,4,4α,5,6,7-hexahydrocyclopenta[f]indazol-5 yl]methyl}amino)sulfonyl]benzoate] gave an Emax of 20% and an EC50 of 394 nM.
In the case of C[C@]12Cc3cnn(-c4ccc(F)cc4)c3C=C1CC[C@@H]2CN(CCO)S(=O)(=O)c1ccc(F)c(F)c1 [Example 59], the Emax is reported as 41.3% and the EC50 is reported as 437 nM.
In the case of COC(=O)c1ccccc1S(=O)(=O)N(C[C@H]1CCC2=Cc3c(cnn3-c3ccc(F)cc3)C[C@@]21C)C[C@@H](C)O [Example 186, methyl 2-({{[(4αR,5S)-1-(4-fluorophenyl)-4α-methyl-1,4,4α,5,6,7-hexahydrocyclopenta[f]indazol-5-yl]methyl}[(2R)-2-hydroxypropyl]amino}sulfonyl)benzoate], the Emax is reported as 35.8% and the EC50 is reported as 509 nM.
For C[C@]12Cc3cnn(-c4ccc(F)cc4)c3C=C1CC[C@@H]2CN(CC#N)S(=O)(=O)c1cc(OCC(F)(F)F)ccc1OCC(F)(F)F [Example 41, N-(cyanomethyl)-N-{[(4αR,5S)-1-(4-fluorophenyl)-4α-methyl-1,4,4α,5,6,7-hexahydrocyclopenta[f]indazol-5-yl]methyl}-2,5-bis(2,2,2-trifluoroethoxy)benzenesulfonamide], the Emax was 60.3% and the EC50 was 124 nM.
